# Test results as given in ChEMBL document CHEMBL3045191, “Effect of soil type on adsorption-desorption, mobility, and activity of the herbicide norflurazon” (J Agric Food Chem, 2004).
# Columns and labels:
# Assay type in all cases: functional, organism-based
# [1] = system: Glycine max; experiment: Herbicidal activity against Glycine max (soybean) grown in loam soil at pH 5.5 assessed as chlorophyll bleaching effect on shoots compound treated to soil measured after 10 days relative to untreated control
# [2] = system: Glycine max; experiment: Herbicidal activity against Glycine max (soybean) grown in sandy soil at pH 8.0 assessed as chlorophyll bleaching effect on shoots compound treated to soil measured after 10 days relative to untreated control
# [3] = system: Glycine max; experiment: Herbicidal activity against Glycine max (soybean) grown in clay soil at pH 8.0 assessed as chlorophyll bleaching effect on shoots compound treated to soil measured after 10 days relative to untreated control
# [4] = system: Glycine max; experiment: Herbicidal activity against Glycine max (soybean) grown in loam soil at pH 5.8 assessed as chlorophyll bleaching effect on shoots compound treated to soil measured after 10 days relative to untreated control
# [5] = system: Glycine max; experiment: Herbicidal activity against Glycine max (soybean) grown in sandy clay loam soil at pH 7.9 assessed as chlorophyll bleaching effect on shoots compound treated to soil measured after 10 days relative to untreated control
# [6] = system: Glycine max; experiment: Herbicidal activity against Glycine max (soybean) grown in sandy clay loam soil at pH 5.7 assessed as chlorophyll bleaching effect on shoots compound treated to soil measured after 10 days relative to untreated control
# [7] = system: Glycine max; experiment: Herbicidal activity against Glycine max (soybean) grown in slit loam soil at pH 7.6 assessed as chlorophyll bleaching effect on shoots compound treated to soil measured after 10 days relative to untreated control
# [8] = system: Glycine max; experiment: Herbicidal activity against Glycine max (soybean) grown in slit loam soil at pH 6.0 assessed as chlorophyll bleaching effect on shoots compound treated to soil measured after 10 days relative to untreated control
smiles,measurement,setting,value
CNc1cnn(-c2cccc(C(F)(F)F)c2)c(=O)c1Cl [NORFLURAZONE],IC50,[1],0.87 mg/kg
same,IC50,[2],0.08 mg/kg
same,IC50,[3],1.04 mg/kg
same,IC50,[4],1.98 mg/kg
same,IC50,[5],0.22 mg/kg
same,IC50,[6],0.43 mg/kg
same,IC50,[7],1.68 mg/kg
same,IC50,[8],1.94 mg/kg
